From PubChem BioAssay AID1601
pEC50: −log10 of the molar value. Results filed as inconclusive are left out. Where a SMILES comes first, the peptide text is derived from it.

Tested on: mutant SOD1 cell death rescue, 1 uM
Experiment: suppressors of mutant SOD1 cell death (AID 1601)

CC[C@@H](CO)NCCN[C@@H](CC)CO
pEC50: 5.54

CC(C)=CCC/C(C)=C/CO
pEC50: 5.92

CC(C)NCC(O)c1ccc(O)c(O)c1 (centres undefined)
pEC50: 6.00

Cc1cc(C(C)(C)CC(C)(C)C)ccc1OCCOCC[N+](C)(C)Cc1ccccc1
pEC50: 7.00

NCCCCC(N)C(=O)NC(Cc1c[nH]c2ccccc12)C(=O)NC(CCCCN)C(=O)O (stereo not drawn) (H-Lys-Trp-Lys-OH; configuration not given here)
pEC50: 5.07

CC(=O)NS(=O)(=O)c1ccc(N)cc1
pEC50: 5.68

CCCC(CCC)C(=O)O
pEC50: 6.15

CC(C)COCC(CN(Cc1ccccc1)c1ccccc1)N1CCCC1 (centres undefined)
pEC50: 6.00

CC[C@H]1OC(=O)[C@H](C)[C@@H](O[C@H]2C[C@@](C)(OC)[C@@H](O)[C@H](C)O2)[C@H](C)[C@@H](O[C@@H]2O[C@H](C)C[C@H](N(C)C)[C@H]2O)[C@](C)(O)C[C@@H](C)CN(C)[C@H](C)[C@@H](O)[C@]1(C)O
pEC50: 6.05
